From article PMC6560083, “A mechanism to prevent production of reactive oxygen species by Escherichia coli respiratory complex I” (Nature Communications, 2019) come the findings set out here.

Changes are numbered by the printed parent chain. Names and notes keep the numbering of the source.

In general, Km refers to the concentration of substrate that gives half-maximal velocity.

Data set [1] addresses T1, NuoEF of Aquifex aeolicus complex I (Aquifex aeolicus, UniProt O66841).
T1 construct: gene nuoF; electron input subcomplex, NuoE (18 kDa) and NuoF (44 kDa) heterodimer, C-terminal hexahistidine tag on NuoF, expressed in E. coli; with NADH-quinone oxidoreductase subunit E
T1 sequence (O66841 1-426): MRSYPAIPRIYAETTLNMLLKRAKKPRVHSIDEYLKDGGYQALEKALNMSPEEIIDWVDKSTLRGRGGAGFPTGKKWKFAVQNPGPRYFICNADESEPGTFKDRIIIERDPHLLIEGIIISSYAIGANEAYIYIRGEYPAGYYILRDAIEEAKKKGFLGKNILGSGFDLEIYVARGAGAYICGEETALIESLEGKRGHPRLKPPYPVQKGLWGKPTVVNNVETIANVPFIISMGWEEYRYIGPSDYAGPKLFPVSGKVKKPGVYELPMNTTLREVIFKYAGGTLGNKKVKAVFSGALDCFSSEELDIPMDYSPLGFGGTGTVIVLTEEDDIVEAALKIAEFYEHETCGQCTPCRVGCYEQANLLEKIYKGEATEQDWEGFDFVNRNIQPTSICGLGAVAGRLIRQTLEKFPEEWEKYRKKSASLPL
T1 sequence (O66842 1-160 partner): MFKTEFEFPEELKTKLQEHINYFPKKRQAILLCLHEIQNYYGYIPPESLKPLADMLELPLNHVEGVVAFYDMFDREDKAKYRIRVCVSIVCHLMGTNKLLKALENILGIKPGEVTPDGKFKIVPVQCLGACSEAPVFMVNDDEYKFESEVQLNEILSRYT
Kind of data set: X-ray crystal structure. Format: binding. The note with it: bound cofactor of NuoF, oxidized (6HL2) and dithionite-reduced (6HL4).

The target in data set [2] is T2, NuoEF of Aquifex aeolicus complex I (Aquifex aeolicus, UniProt O66841, S96M).
T2 construct: gene nuoF; electron input subcomplex, NuoE (18 kDa) and NuoF (44 kDa) heterodimer, C-terminal hexahistidine tag on NuoF, expressed in E. coli; with NADH-quinone oxidoreductase subunit E
The data set is described as follows: X-ray crystal structure, soaked crystals. Format: binding.

The target of data set [3] is T1, NuoEF of Aquifex aeolicus complex I. The data set is described as follows: X-ray crystal structure, soaked crystals. The class given is binding.
Data set [4] addresses T3, NuoEF of Aquifex aeolicus complex I (Aquifex aeolicus, UniProt O66841).
T3 construct: gene nuoF; electron input subcomplex, NuoE (18 kDa) and NuoF (44 kDa) heterodimer, C-terminal hexahistidine tag on NuoF, expressed in E. coli; with NADH-quinone oxidoreductase subunit E
The data set is described as follows: X-ray crystal structure, soaked crystals. The class given is binding. As to conditions: oxidized; ADP moiety defined, nicotinamide ring and its ribose not seen.
Target sequence in this assay (O66842 whole entry G129D, form open, one chain of several): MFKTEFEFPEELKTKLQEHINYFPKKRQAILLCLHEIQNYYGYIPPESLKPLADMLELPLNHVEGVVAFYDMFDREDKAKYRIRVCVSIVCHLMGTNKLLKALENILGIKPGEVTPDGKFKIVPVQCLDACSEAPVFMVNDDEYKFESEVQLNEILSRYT

Data set [5] has as its target T3, NuoEF of Aquifex aeolicus complex I. Kind of data set: X-ray crystal structure, soaked crystals. Format: binding. As to conditions: oxidized.
Target sequence in this assay (O66842 whole entry G129S, form open, one chain of several, further chain): as the sequence (O66842 whole entry G129D, form open, one chain of several) above, with D129S counted along it
Data set [6] deals with T4, Aquifex aeolicus complex I subunit NuoF (Aquifex aeolicus, UniProt O66841 1-426).
T4 construct: NuoF, subunit of the NADH:ubiquinone oxidoreductase (complex I) of Aquifex aeolicus; 44 kDa; the model contains 418 amino acids, eight residues at the C-terminus and the following hexahistidine tag not defined; Co-produced and co-purified with NuoE as the subcomplex NuoEF; also called original NuoEF (subunit F); source: overproducing E. coli strain, purified together with NuoE (Source 15Q anion …)
T4 sequence (looked up): T1 sequence (O66841 1-426)
Kind of data set: crystal structure; NuoEF subcomplex crystallized at 20 °C by sitting drop vapor diffusion, 0.1 M Tris/HCl, 1.0 M sodium citrate, pH 6.9-7.1; air-oxidized, dithionite- or NADH-reduced, with and without soaked NAD+ or NADH. The note with it: both partners purified.

For data set [7], the target named is T5, Aquifex aeolicus NuoF variant S96M (Aquifex aeolicus, UniProt O66841 1-426, S96M^F).
T5 construct: NuoF of Aquifex aeolicus complex I with S96 exchanged for methionine (the residue at the homologous position of E. coli NuoF); The His tag is told for the original NuoF; the variants were purified in the same way (Ni2+-IDA); also called S96M^F; NuoEF S96M^F; source: overproducing E. coli strain, purified together with NuoE (Source 15Q anion exchange, Ni2+-IDA, size exclusion)
T5 sequence (looked up): T1 sequence (O66841 1-426) with S96M
Described as above. The note with it: both partners purified.

Substrate in data set [8]: NC(=O)C1=CN([C@@H]2O[C@H](COP(=O)(O)OP(=O)(O)OC[C@H]3O[C@@H](n4cnc5c(N)ncnc54)[C@H](O)[C@@H]3O)[C@@H](O)[C@H]2O)C=CC1
The data set is described as follows: purified protein. The class given is biochemical, Escherichia coli. As to conditions: 50 mM MES/NaOH, 50 mM NaCl, pH 6.0, electron acceptor of the Km titration not clearly stated (decyl-ubiquinone or ferricyanide).

T2 sequence (O66841 whole entry S96M, one chain of several): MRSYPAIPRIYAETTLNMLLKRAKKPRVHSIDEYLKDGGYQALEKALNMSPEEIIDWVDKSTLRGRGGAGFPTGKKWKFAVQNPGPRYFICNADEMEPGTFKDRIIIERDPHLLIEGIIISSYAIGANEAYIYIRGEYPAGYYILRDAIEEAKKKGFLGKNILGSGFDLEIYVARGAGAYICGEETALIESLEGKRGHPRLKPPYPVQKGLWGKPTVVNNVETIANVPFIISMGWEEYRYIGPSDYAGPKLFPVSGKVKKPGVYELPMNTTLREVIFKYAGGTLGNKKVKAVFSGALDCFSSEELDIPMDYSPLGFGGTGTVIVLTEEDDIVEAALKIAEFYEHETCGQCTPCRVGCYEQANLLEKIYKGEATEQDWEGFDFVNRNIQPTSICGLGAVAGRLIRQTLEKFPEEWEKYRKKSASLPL

In the case of `Cc1cc2nc3c(=O)[nH]c(=O)nc-3n(C[C@H](O)[C@H](O)[C@H](O)COP(=O)(O)O)c2cc1C` [FMN], the X-ray crystal structure entry in data set [1] is reported as “Subunit NuoF binds the FMN cofactor as well as cluster N3”.

Regarding `NC(=O)C1=CN([C@@H]2O[C@H](COP(=O)(O)OP(=O)(O)OC[C@H]3O[C@@H](n4cnc5c(N)ncnc54)[C@H](O)[C@@H]3O)[C@@H](O)[C@H]2O)C=CC1` [NADH], the “X-ray crystal structure, soaked crystals” value in data set [2] (reduced) was 6Q9K (variant S96M, reduced with NADH); in data set [3] (NADH soak, reduced state, 1.8-1.9 Å, nicotinamide in tight position, 6HLA with dithionite plus NADH), “crystals of NuoEF were soaked with NAD^+, with NADH and with NADH plus dithionite”.

With `NC(=O)c1ccc[n+]([C@@H]2O[C@H](COP(=O)(O)OP(=O)(O)OC[C@H]3O[C@@H](n4cnc5c(N)ncnc54)[C@H](O)[C@@H]3O)[C@@H](O)[C@H]2O)c1` [NAD^+], the “X-ray crystal structure, soaked crystals” value is “the oxidized G129D^E variant was soaked with NAD^+” in data set [4]; 6HLJ (variant G129S, oxidized with NAD^+) in data set [5]; 6R7P (variant S96M, oxidized with NAD^+) in data set [2] (oxidized, 3.22 Å); “crystals of NuoEF were soaked with NAD^+, with NADH and with NADH plus dithionite” in data set [3] (oxidized state, 10 mM NAD+ soak, 2.0 Å, loose position, 6HLI: dithionite-reduced, near tight position).

B1: Aquifex aeolicus complex I subunit NuoE (natural protein)
chain: T1 sequence (O66842 1-160 partner)
notes: NuoE, subunit of the NADH:ubiquinone oxidoreductase (complex I) of Aquifex aeolicus; 18 kDa; the model comprises 154 amino acids, the first six N-terminal residues not defined (residues up to 160); holds the [2Fe-2S] cluster N1a; Co-produced and co-purified with His-tagged NuoF as the subcomplex NuoEF; also called original NuoEF (subunit E); source: overproducing E. coli strain, purified together …
For the molecule B1, the binding result in data set [6] and in data set [7] was “binds” throughout.

B2: Aquifex aeolicus NuoE variant G129S (natural protein)
chain: T1 sequence (O66842 1-160 partner) with G129S
notes: NuoE of Aquifex aeolicus complex I with G129 exchanged for serine; also called G129S^E; Ser-variant of NuoEF; source: E. coli, purified together with NuoF (Source 15Q anion exchange, Ni2+-IDA, size exclusion)
As for B2, in data set [6], the binding result was “binds”.

B3: Aquifex aeolicus NuoE variant G129D (natural protein)
chain: T1 sequence (O66842 1-160 partner) with G129D
notes: NuoE of Aquifex aeolicus complex I with G129 exchanged for aspartate; also called G129D^E; Asp-variant of NuoEF; source: E. coli, purified together with NuoF (Source 15Q anion exchange, Ni2+-IDA, size exclusion)
Regarding B3, in data set [6], the binding result is “binds”.

B4: E. coli complex I (Escherichia coli K-12) (protein)
chain: MKNIIRTPETHPLTWRLRDDKQPVWLDEYRSKNGYEGARKALTGLSPDEIVNQVKDAGLKGRGGAGFSTGLKWSLMPKDESMNIRYLLCNADEMEPGTYKDRLLMEQLPHLLVEGMLISAFALKAYRGYIFLRGEYIEAAVNLRRAIAEATEAGLLGKNIMGTGFDFELFVHTGAGRYICGEETALINSLEGRRANPRSKPPFPATSGAWGKPTCVNNVETLCNVPAILANGVEWYQNISKSKDAGTKLMGFSGRVKNPGLWELPFGTTAREILEDYAGGMRDGLKFKAWQPGGAGTDFLTEAHLDLPMEFESIGKAGSRLGTALAMAVDHEINMVSLVRNLEEFFARESCGWCTPCRDGLPWSVKILRALERGEGQPGDIETLEQLCRFLGPGKTFCAHAPGAVEPLQSAIKYFREEFEAGIKQPFSNTHLINGIQPNLLKERW
notes: with NADH-quinone oxidoreductase subunit E; NADH-quinone oxidoreductase subunit G; NADH-quinone oxidoreductase subunit B; NADH-quinone oxidoreductase subunit C/D; NADH-quinone oxidoreductase subunit I; NADH-quinone oxidoreductase subunit A; NADH-quinone oxidoreductase subunit H; NADH-quinone oxidoreductase subunit J; NADH-quinone oxidoreductase subunit K; NADH-quinone oxidoreductase subunit L; …
Turning to B4, in data set [8], the Km is reported as 13 ± 1 µM.
